From patent US10435412B2, “Selective modulators of the activity of the GPR55 receptor: chromenopyrazole derivatives” (Consejo Superior de Investigaciones Cientificas (CSIC), priority 2015, dated 2019)

Assays:
GPR55 receptor [1] = biological target: T1, GPR55 receptor (Homo sapiens, UniProt Q9Y2T6); assay: GPR55 agonist activity, real-time cell impedance (xCELLigence) in hGPR55-HEK293 cells; assay type: cell-based; settings: mean (95% confidence interval); for Emax: read-out: Emax (%), agonist action on GPR55
T1 construct: expressed in transfected cells
T1 sequence (Q9Y2T6 whole entry): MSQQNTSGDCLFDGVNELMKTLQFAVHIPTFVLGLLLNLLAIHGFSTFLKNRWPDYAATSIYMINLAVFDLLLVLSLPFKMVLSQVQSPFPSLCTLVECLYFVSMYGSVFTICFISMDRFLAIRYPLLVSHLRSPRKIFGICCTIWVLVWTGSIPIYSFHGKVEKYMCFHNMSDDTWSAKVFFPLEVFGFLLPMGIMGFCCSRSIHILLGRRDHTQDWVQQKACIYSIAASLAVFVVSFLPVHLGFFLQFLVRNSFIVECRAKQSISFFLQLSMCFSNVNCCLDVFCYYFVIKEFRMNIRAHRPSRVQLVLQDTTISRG
Procedure: (§1) In the present invention, the activity of the compounds of the invention on the GPR55 receptor was assessed by performing in vitro assays with real-time cell impedance measurements (xCELLigence experiments). These assays were performed on a HEK293 human embryonic kidney cell line overexpressing the recombinant GPR55 receptor in stable form (hGPR55-HEK293). The cells were seeded one day prior to carrying out the stimulation with the exemplary compounds of the present invention.
Activation of the GPR55 receptor by an agonist compound causes a cellular impedance detected by the system and compared to lysophosphatidylinositol (LPI), a reference GPR55 ligand. The effect of LPI measured at a concentration of 1 μM was set at 100%. […] Therefore, dose-response curves were determined at this time. Cell impedance values were normalized for each well, just prior to addition of the inventive compound of the invention to be evaluated.

GPR55 receptor [2] = biological target: T1, GPR55 receptor; assay: GPR55 antagonist activity: inhibition of LPI-mediated GPR55 stimulation (xCELLigence) in hGPR55-HEK293 cells; assay type: cell-based; settings: LPI alone or with example compound at 1 μM, mean (95% confidence interval)
Procedure: as §1
The ability of the exemplary compounds of the patent to inhibit LPI-mediated GPR55 receptor stimulation has been evaluated.
Values represent the mean with a 95% confidence interval calculated with 4 independent experiments performed in duplicate. Significant differences with respect to LPI values are considered due to lack of overlap of confidence intervals.

[3] = maximum effect relative to LPI 1 μM = 100%

| Compound | Emax (GPR55 receptor [1]; [3]) | melting point | further results |
| --- | --- | --- | --- |
| COc1ccc2c(c1)OC(C)(C)c1cn(CCN3CCN(C(=O)c4ccco4)CC3)nc1-2 [Example 2, 2-(2-(4-(2-furoyl)piperazinyl)ethyl)-2,4-dihydro-7-methoxy-4,4-dimethylchromeno[4,3-c]pyrazole] | 43% |  |  |
| COc1ccc2c(c1)OC(C)(C)c1cn(CCN3CCN(C(=O)c4ccccc4)CC3)nc1-2 [Example 4, 2-(2-(4-benzoyl-piperazinyl)ethyl)-2,4-dihydro-7-methoxy-4,4-dimethylchromeno[4,3-c]pyrazole] | 51% |  |  |
| COc1ccc2c(c1)OC(C)(C)c1cn(CCN3CCN(C(=O)c4cccs4)CC3)nc1-2 [Example 6, 2-(2-(4-(2-thienoyl)piperazinyl)ethyl)-2,4-dihydro-7-methoxy-4,4-dimethylchromeno[4,3-c]pyrazole] | 45% | 163 to 165 °C |  |
| COc1ccc2c(c1)OC(C)(C)c1cn(CCN3CCN(C(=O)COc4ccccc4)CC3)nc1-2 [Example 7, 2-(2-(4-phenoxyacetylpiperazinyl)ethyl)-2,4-dihydro-7-methoxy-4,4-dimethylchromeno[4,3-c]pyrazole] | 52% | 177 to 179 °C |  |
| COc1ccc2c(c1)OC(C)(C)c1cn(CCN3CCN(C(=O)C4CCCO4)CC3)nc1-2 (stereo not shown) [Example 8, 2-(2-(4-(2-tetrahydrofuroyl)piperazinyl)ethyl)-2,4-dihydro-7-methoxy-4,4-dimethylchromeno[4,3-c]pyrazole] | 51% | 158 to 160 °C |  |
| COc1ccc2c(c1)OC(C)(C)c1cn(CCN3CCN(C(=O)C4CCCCC4)CC3)nc1-2 [Example 9, 2-(2-(4-cyclohexylcarbonyl-piperazinyl)ethyl)-2,4-dihydro-7-methoxy-4,4-dimethylchromeno[4,3-c]pyrazole] | 47% | 151 to 152 °C |  |
| COc1ccc2c(c1)OC(C)(C)c1cn(CCN3CCN(C(=O)C(C)(C)C)CC3)nc1-2 [Example 10, 2-(2-(4-pivaloyl-piperazinyl)ethyl)-2,4-dihydro-7-methoxy-4,4-dimethylchromeno[4,3-c]pyrazole] | 49% |  |  |
| COc1ccc2c(c1)OC(C)(C)c1cn(CNC(=O)CN3CCN(c4ccccc4OC)CC3)nc1-2 [Example 14, 2-(2-(4-(2-methoxyphenyl)piperazinyl)acetamidomethyl)-2,4-dihydro-7-methoxy-4,4-dimethylchromeno[4,3-c]pyrazole] | 51% |  |  |
| lysophosphatidylinositol [LPI, reference compound] |  |  | EC50 (GPR55 receptor [1]; hGPR55-HEK293 cells, xCELLigence, 5 minutes after addition, 4 experiments, read-out: EC50 (nM), agonist action on GPR55): 2.82 nM; Emax (%), agonist action on GPR55 (GPR55 receptor [1]; [3]): 100 (81-118) %; EC50 (GPR55 receptor [2]; hGPR55-HEK293 cells, read-out: EC50 (nM) of LPI in the presence of example compound): 1.6 nM; Emax (%) of LPI in the presence of example compound (GPR55 receptor [2]; relative to LPI activity): 99 (90-108) % |
